Reference: paper PMC11414412, “Design and synthesis new indole-based aromatase/iNOS inhibitors with apoptotic antiproliferative activity” (Frontiers in Chemistry, 2024)

Tests used:
[1] = system: Caspase-3; assay: Caspase-3 activation assay; format: cell-based, human; settings: A-594 cells; for Caspase-3 Fold change: at IC50 concentration, vs untreated control; for Caspase-3 Conc: compound at its IC50 concentration
[2] = system: Bax; assay: Bax activation assay; format: cell-based, human; settings: lung (A-549) cancer cells; for Bax Fold change: at IC50, vs untreated control; for Bax Conc: compound at IC50
Experimental: Cells were obtained from American Type Culture Collection, cells were grown in RPMI 1640 containing 10% fetal bovine serum at 37°C, stimulated with the compounds to be tested for caspase8, and lysed with Cell Extraction Buffer. This lysate was diluted in Standard Diluent Buffer over the range of the assay and measured for human active caspase-8 content. […]
4.2.7. Bax activation assay
Bring all reagents, except the human Bax-α Standard, to room temperature for at least 30 minutes prior to opening. The human Bax-α Standard solution should not be left at room temperature for more than 10 minutes. All standards, controls and samples should be run in duplicate. Refer to the Assay Layout Sheet to determine the number of wells to be used and put any remaining wells with the desiccant back into the pouch and seal the ziploc. Store unused wells at 4 °C. Pipet 100 μL of Assay Buffer into the S0 (0 pg/mL standard) wells. Pipet 100 μL of Standards #1 through #6 into the appropriate wells. Pipet 100 μL of the Samples into the appropriate wells. Tap the plate gently to mix the contents. Seal the plate and incubate at room temperature on a plate shaker for 1 hour at ~500 rpm. Empty the contents of the wells and wash by adding 400 μL of wash solution to every well. Repeat the wash 4 more times for a total of 5 washes. After the final wash, empty or aspirate the wells and firmly tap the plate on a lint free paper towel to remove any remaining wash buffer.
Pipet 100 μL of yellow Antibody into each well, except the Blank. Seal the plate and incubate at room temperature on a plate shaker for 1 hour at ~500 rpm. Empty the contents of the wells and wash by adding 400 μL of wash solution to every well. Repeat the wash 4 more times for a total of 5 washes. After the final wash, empty or aspirate the wells and firmly tap the plate on a lint free paper towel to remove any remaining wash buffer. Add 100 μL of blue Conjugate to each well, except the Blank. Seal the plate and incubate at room temperature on a plate shaker for 30 minutes […]
Pipet 100 μL of Substrate Solution into each well. Incubate for 30 minutes at room temperature on a plate shaker at ~500 rpm. Pipet 100 μL Stop Solution to each well. Blank the plate reader against the Blank wells, read the optical density at 450 nm. Calculate the average net Optical Density (OD) bound for each standard and sample by subtracting the average Blank OD from the average OD for each standard and sample. Using linear graph paper, plot the Average Net OD for each standard versus Bax concentration in each standard. Approximate a straight line through the points.
The concentration of Bax in the unknowns can be determined by interpolation. […]

| melting point [°C] | Structure (SMILES) | Caspase-3 Fold change [1] | Caspase-3 Conc [1] [pg/mL] | Bax Fold change [2] | Bax Conc [2] [pg/mL] |
| --- | --- | --- | --- | --- | --- |
| 180 to 182 | CCc1c2cc(Cl)ccc2n2c(C)c(C(=O)OCc3ccccc3)[nH]c(=O)c12 [Compound 5, benzyl 8-chloro-10-ethyl-4-methyl-1-oxo-1,2-dihydropyrazino [1,2-a]indole-3-carboxylate] | – | – | – | – |
| – | CCc1c2cc(Cl)ccc2n2cc(Cc3ccccc3)n(C)c(=O)c12 [Compound 12, 3-Benzyl-8-chloro-10-ethyl-2-methylpyrazino[1,2-a]indol-1(2H)-one] | 9 | 580 ± 5 | 41 | 368 ± 3 |
| – | CCc1c2cc(Cl)ccc2n2cc(-c3ccccc3)[nH]c(=O)c12 [Compound 16, 8-Chloro-10-ethyl-3-phenylpyrazino [1,2-a]indol-1(2H)-one] | 8 | 530 ± 5 | 35 | 315 ± 3 |
